Literature values, collected in article PMC10817174, “Integrated drug response prediction models pinpoint repurposed drugs with effectiveness against rhabdomyosarcoma” (PLOS ONE, 2024).

Columns and labels:
GDSC-RD cell line = settings: Table S2, published drug response ref Iorio et al. (2016); cited from earlier work
GDSC-SJCRH30 cell line = settings: Table S2, published drug response ref Iorio et al. (2016); cited from earlier work

Compound | Iorio_RD (GDSC-RD cell line) | Iorio_SJCRH30 (GDSC-SJCRH30 cell line)
Cc1ccc(C(=O)Nc2ccc(CN3CCN(C)CC3)c(C(F)(F)F)c2)cc1C#Cc1cnc2cccnn12 [AP-24534] | R | R
CCT007093 | R | R
CCC/C=C/C=C/C(=O)O[C@H]1/C(=C/C(=O)OC)C[C@H]2C[C@H]([C@@H](C)O)OC(=O)C[C@H](O)C[C@@H]3C[C@H](OC(C)=O)C(C)(C)[C@](O)(C[C@@H]4C/C(=C/C(=O)OC)C[C@H](/C=C/C(C)(C)[C@]1(O)O2)O4)O3 [Bryostatin-1] | R | R
Cc1ccc(-c2c(C(=O)CF)n(CCCO)c3ncnc(N)c23)cc1 [FMK] | R | R
O=S(=O)(c1ccccc1)N(CC(F)(F)F)c1ccc(C(O)(C(F)(F)F)C(F)(F)F)cc1 [T0901317] | R | R
Oc1ccc2ccccc2c1SSc1c(O)ccc2ccccc12 [IPA-3] | R | R
Nc1ccn([C@@H]2O[C@H](CO)[C@@H](O)C2(F)F)c(=O)n1 [Gemcitabine] | R | R
Cc1ccc(NC(=O)c2ccc(CN3CCN(C)CC3)cc2)cc1Nc1nc(-c2cccnc2)cs1 [Masitinib] | R | R
CCc1cc(-c2n[nH]c(C)c2-c2ccc3c(c2)OCCO3)c(O)cc1O [CCT018159] | R | R
COc1ccc(C(=O)CC2(O)C(=O)Nc3c(Cl)ccc(Cl)c32)cc1 (stereo not shown) [YK-4-279] | R | R
N#CC[C@H](C1CCCC1)n1cc(-c2ncnc3[nH]ccc23)cn1 [Ruxolitinib] | R | R
CO[C@@]12[C@H](COC(N)=O)C3=C(C(=O)C(C)=C(N)C3=O)N1C[C@@H]1N[C@@H]12 [Mitomycin-C] | R | R
O=c1[nH]c2ccccc2n1C1CCN(Cc2ccc(-c3nc4cc5[nH]cnc5cc4nc3-c3ccccc3)cc2)CC1 [AKT-inhibitor-VIII] | R | R
Oc1nc(-c2ccc(C(F)(F)F)cc2)nc2c1CSCC2 [XAV-939] | R | R
CC(C)(C)OC(=O)Nc1ccc(-c2cc(C(=O)NCCCCCCC(=O)NO)no2)cc1 [CAY10603] | R | R
NS(=O)(=O)OC[C@@H]1C[C@@H](n2ccc3c(N[C@H]4CCc5ccccc54)ncnc32)C[C@@H]1O [MLN4924] | R | R
COc1cc(OC)cc(-c2ccc3ncc4ccc(=O)n(-c5ccc(N6CCNCC6)c(C(F)(F)F)c5)c4c3c2)c1 [JW-7-24-1] | R | R
NCC(=O)Nc1ccc(-n2nc(C(F)(F)F)cc2-c2ccc3c(ccc4ccccc43)c2)cc1 [OSU-03012] | R | R
CN(C)C/C=C/C(=O)Nc1ccc(C(=O)Nc2cccc(Nc3ncc(Cl)c(-c4c[nH]c5ccccc45)n3)c2)cc1 [THZ-2-102-1] | R | R
O=C(O)c1ccc(-c2c[nH]c3ncc(-c4ccccc4)cc23)cc1C1CCCC1 [GSK-650394] | R | R
COC(=O)CNC(=O)C(=O)OC [DMOG] | R | R
C=CCc1cccc(/C=N/NC(=O)CN2CCN(Cc3ccccc3)CC2)c1O [PAC-1] | R | R

Compound | Iorio_RD (GDSC-RD cell line) | Iorio_SJCRH30 (GDSC-SJCRH30 cell line)
Cc1ccc(C(=O)Nc2cccc(C(F)(F)F)c2)cc1Nc1nc(-c2cccnc2)nc2c1cnn2C [NVP-BHG712] | R | R
COc1cc(/C=C/C(=O)N2CCC=CC2=O)cc(OC)c1OC [piperlongumine] | S | R
CCNC(=O)c1noc(-c2cc(C(C)C)c(O)cc2O)c1-c1ccc(CN2CCOCC2)cc1 [AUY922] | R | R
COCC(=O)NC/C=C/c1ccc2ncnc(Nc3ccc(Oc4ccc(C)nc4)c(C)c3)c2c1 [CP724714] | R | R
CC[C@H](Nc1ncnc2[nH]cnc12)c1nc2cccc(F)c2c(=O)n1-c1ccccc1 [CAL-101] | R | R
Cc1cnc(CNC(=O)c2c(=O)c3ccc(N4CCCN(C)CC4)nc3n3c2sc2ccccc23)cn1 [CX-5461] | S | R
C[C@@]1(C(=O)Nc2ccc(F)nc2)CCCN1c1nc(Nc2cc(C3CC3)n[nH]2)c2cccn2n1 [BMS-754807] | S | S
CCCCCCCCCCCC1=C(O)C(=O)C=C(O)C1=O [Embelin] | R | R
[H]/N=C(/N)N/C(=N/[H])NCCc1ccccc1 [Phenformin] | R | R
COC(=O)[C@H](CCSC)NC(=O)c1ccc(NC[C@@H](N)CS)cc1-c1ccccc1 [FTI-277] | R | R
CCc1nc(-c2cccc(C)c2)c(-c2ccnc(NC(=O)c3ccccc3)c2)s1 [TAK-715] | R | R
COc1cc2nccc(Oc3ccc(NC(=O)C4(C(=O)Nc5ccc(F)cc5)CC4)cc3)c2cc1OC [XL-184] | R | R
CN(c1ncccc1CNc1nc(Nc2ccc3c(c2)CC(=O)N3)ncc1C(F)(F)F)S(C)(=O)=O [PF-562271] | R | R
CCCC(=O)OCc1ccc(OC(=O)/C=C(C)/C=C/C=C(C)/C=C/C2=C(C)CCCC2(C)C)cc1 [VNLG-124] | R | R
Cn1cc(C2=C(c3cn(C4CCN(Cc5ccccn5)CC4)c4ccccc34)C(=O)NC2=O)c2ccccc21 [LY317615] | R | R
Cc1ccc2nc(NCCN)c3ncc(C)n3c2c1 [BMS-345541] | R | R
Cc1ccc(Nc2nccc(N(C)c3ccc4c(C)n(C)nc4c3)n2)cc1S(N)(=O)=O [Pazopanib] | R | R
COc1cc([C@@H]2c3cc4c(cc3[C@@H](O[C@@H]3O[C@@H]5CO[C@@H](C)O[C@H]5[C@H](O)[C@H]3O)[C@H]3COC(=O)[C@H]23)OCO4)cc(OC)c1O [Etoposide] | R | R
CC(=O)Nc1nc(C)c(-c2ccc(Cl)c(S(=O)(=O)NCCO)c2)s1 [PIK-93] | R | R
CCOc1cc2ncc(C#N)c(Nc3ccc(F)c(Cl)c3)c2cc1NC(=O)/C=C/CN(C)C [EKB-569] | R | R
Cc1ccc(F)c(NC(=O)Nc2ccc(-c3cccc4[nH]nc(N)c34)cc2)c1 [ABT-869] | R | R
OC[C@H](Cc1ccccc1)Nc1nc(Oc2ccc3c(c2)CCC3)nc2c1ncn2Cc1ccc(-c2ccccc2)cc1 [QS11] | R | R

Compound | Iorio_RD (GDSC-RD cell line) | Iorio_SJCRH30 (GDSC-SJCRH30 cell line)
COc1cc(N2CCC(O)CC2)ccc1Nc1cc(Nc2ccccc2S(=O)(=O)C(C)C)c2cc[nH]c2n1 [MPS-1-IN-1] | R | R
C[C@@H](N)c1ccc(C(=O)Nc2ccnc3[nH]ccc23)cc1 [Y-39983] | R | R
COc1cccc2c1C(=O)c1c(O)c3c(c(O)c1C2=O)C[C@@](O)(C(=O)CO)C[C@@H]3O[C@H]1C[C@H](N)[C@H](O)[C@H](C)O1 [Doxorubicin] | R | R
Cc1cc([N+](=O)[O-])ccc1NS(=O)(=O)c1cc(Cl)ccc1Cl [FH535] | R | R
CCn1c(-c2nonc2N)nc2c(C#CC(C)(C)O)ncc(OC[C@H]3CCCNC3)c21 [GSK690693] | R | S
CC(C)c1ccccc1Cc1cc(C(=O)Nc2ccc(S(=O)(=O)c3ccccc3C(C)(C)C)cc2)c(O)c(O)c1O [TW-37] | R | R
O=C(c1ccc(C(=O)N2CCC(N3CCCC3)CC2)c(Nc2ccccc2)c1)N1CCC(N2CCCC2)CC1 [UNC1215] | R | S
S=C(NCc1ccc2c(c1)OCO2)N1CCN(c2ncnc3c2oc2ccccc23)CC1 [MP470] | R | R
C[C@]1(c2nc3c(C(N)=O)cccc3[nH]2)CCCN1 [ABT-888] |  | R
NC(=O)c1ncn([C@@H]2O[C@H](CO)[C@@H](O)[C@H]2O)c1N [AICAR] |  | R
O=c1cc(-c2cccc3c2Sc2ccccc2S3)oc(N2CCOCC2)c1 [KU-55933] |  | R
CC[C@]1(O)C[C@@H]2CN(CCc3c([nH]c4ccccc34)[C@@](C(=O)OC)(c3cc4c(cc3OC)N(C)[C@H]3[C@@](O)(C(=O)OC)[C@H](OC(C)=O)[C@]5(CC)C=CCN6CC[C@]43[C@@H]65)C2)C1 [Vinblastine] |  | R
Cn1cc(C2=C(c3ccc(Cl)cc3Cl)C(=O)NC2=O)c2ccccc21 [SB-216763] |  | R
O=C(NOC[C@H](O)CO)c1ccc(F)c(F)c1Nc1ccc(I)cc1F [PD-0325901] |  | R
Cn1cc(/C=C2\C(=O)Nc3cccnc32)c2ccccc21 [GW-441756] |  | S
CC1=C(/C=C/C(C)=C/C=C/C(C)=C/C(=O)O)C(C)(C)CCC1 [ATRA] |  | R
CC1(C)CNc2cc(NC(=O)c3cccnc3NCc3ccncc3)ccc21 [AMG-706] |  | R
CC(=O)c1c(C)c2cnc(Nc3ccc(N4CCNCC4)cn3)nc2n(C2CCCC2)c1=O [PD-0332991] |  | R
CN(Cc1cnc2nc(N)nc(N)c2n1)c1ccc(C(=O)N[C@@H](CCC(=O)O)C(=O)O)cc1 [Methotrexate] |  | R
Cc1cn(-c2cc(NC(=O)c3ccc(C)c(Nc4nccc(-c5cccnc5)n4)c3)cc(C(F)(F)F)c2)cn1 [Nilotinib] |  | R
C=CCNC1=C2C[C@@H](C)C[C@H](OC)[C@H](O)[C@@H](C)/C=C(\C)[C@H](OC(N)=O)[C@@H](OC)/C=C\C=C(/C)C(=O)NC(=CC1=O)C2=O [17-AAG] |  | R
CN(NC(=O)CC(=O)NN(C)C(=S)c1ccccc1)C(=S)c1ccccc1 [Elesclomol] |  | R
